Measured values from patent US6441184B1, “Fused heteroaromatic glucokinase activators” (Hoffmann-LA Roche Inc., priority 2000, dated 2002).

Tested on: C57BL/6J mice
Assay: Glucokinase activator in vivo screen protocol (blood glucose after oral dosing)
Details: administered orally, 50 mg/kg, C57BL/6J mice fasted two hours; active = significant (p<0.05) decrease in blood glucose vs vehicle for two consecutive time points
Procedure: Glucokinase Activator in vivo Screen Protocol
C57BL/6J mice are orally dosed via gavage with Glucokinase (GK) activator at 50 mg/kg body weight following a two hour fasting period. Blood glucose determinations are made five times during the six hour post-dose study period.
Mice (n=6) are weighed and fasted for a two hour period prior to oral treatment. GK activators are formulated at 6.76 mg/ml in Gelucire vehicle (Ethanol:Gelucire44/14:PEG400q.s. 4:66:30 v/w/v. Mice are dosed orally with 7.5 μL formulation per gram of body weight to equal a 50 mg/kg dose. Immediately prior to dosing, a pre dose (time zero) blood glucose reading is acquired by snipping off a small portion of the animals tail (−1 mm) and collecting 15 μL blood into a heparinized capillary tube for analysis. Following GK activator administration, additional blood glucose readings are taken at 1, 2, 4, and 6 hours post dose from the same tail wound. Results are interpreted by comparing the mean blood glucose values of six vehicle treated mice with six GK activator treated mice over the six hour study duration.

SMILES	glucokinase activator in vivo activity
CS(=O)(=O)c1ccc([C@@H](CC2CCCC2)C(=O)Nc2nc3ccccc3s2)cc1Cl [Example 19, N-Benzothiazol-2-yl-2(R)-(3-chloro-4-methanesulfonyl-phenyl)-3-cyclopentyl-propionamide]	excellent glucokinase activator in vivo activity
CS(=O)(=O)c1ccc(C(CC2CCCC2)C(=O)Nc2nc3ccccc3[nH]2)cc1Cl (stereo not drawn) [Example 20, N-(1H-Benzoimidazol-2-yl)-2-(3-chloro-4-methanesulfonyl-phenyl)-3-cyclopentyl-propionamide]	excellent glucokinase activator in vivo activity
CS(=O)(=O)c1ccc(C(CC2CCCC2)C(=O)Nc2ccc3ccccc3n2)cc1Cl (stereo not drawn) [Example 22, 2-(3-Chloro-4-methanesulfonyl-phenyl)-3-cyclopentyl-N-quinolin-2-yl-propionamide]	excellent glucokinase activator in vivo activity
